In paper PMC8625207, “Antikinetoplastid Activity of Sesquiterpenes Isolated from the Zoanthid Palythoa aff. clavata” (Pharmaceuticals, 2021):

Experiments:
Assay type in all cases: cell-based
[1] = tested on: epimastigotes of Trypanosoma cruzi (Y strain); assay: alamarBlue activity against epimastigotes of T. cruzi; details: for IC50: Trypanosoma cruzi, 72 h of incubation, mean with standard deviation; for Epimastigotes T. cruzi SI: selectivity index CC50/IC50
Protocol: (§1) For the anti-leishmanicidal experiments, promastigotes and amastigotes of Leishmania amazonensis strain (MHOM/BR/77/LTB0016) and promastigotes of Leishmania donovani strain (MHOM/IN/90/GE1F8R) were used, and they were maintained in RPMI 1640 medium (Gibco, Waltham, MA, USA) at 26 °C. For the trypanocidal experiments, epimastigotes of Trypanosoma cruzi (Y strain) were used, and they were maintained in liver infusion tryptose (LIT) medium supplemented with 10% of fetal bovine serum (FBS) at 26 °C. Murine macrophages J774A.1 (ATCC #TIB-67), maintained in DMEM medium at 37 °C with 5% CO2, were used for the cytotoxic activity assays.
(§2) For the activity against extracellular parasites of kinetoplastid, Leishmania and Trypanosoma parasites, in a 96-well plate, serial dilutions of the compounds were added with dilutions of 10^5 parasites per well and a 10% of alamarBlue Cell Viability Reagent® (Thermo Fisher Scientific, Waltham, MA, USA). After 72 h of incubation at 26 °C, the fluorescence of each well was measured in the EnSpire Multimode Plate Reader® (PerkinElmer, Thermo Fisher Scientific, Madrid, Spain). The inhibitory concentration 50 (IC50) was calculated by nonlinear regression analysis.

[2] = alamarBlue cytotoxicity on murine macrophages; details: mouse, J774A.1 macrophages; 24 h of incubation; read-out: Macrophages J744A.1 CC50
[3] = tested on: promastigotes of Leishmania donovani strain (MHOM/IN/90/GE1F8R); assay: alamarBlue activity against promastigotes of L. donovani; details: for IC50: Leishmania donovani, 72 h of incubation, mean with standard deviation; for Promastigotes L. donovani SI: selectivity index CC50/IC50 (macrophages J744A.1 vs parasite)
Protocol: as §1, §2

[4] = tested on: promastigotes of Leishmania amazonensis strain (MHOM/BR/77/LTB0016); assay: alamarBlue activity against promastigotes of L. amazonensis; details: for IC50: Leishmania amazonensis, 72 h of incubation, mean with standard deviation; for Promastigotes L. amazonensis SI: selectivity index CC50/IC50
Protocol: as §1, §2

Structure (SMILES)	IC50 [1] [µM]	Epimastigotes T. cruzi SI [1]	CC50 at 24 h [2] [µM]	IC50 [3] [µM]	Promastigotes L. donovani SI [3]	IC50 [4] [µM]	Promastigotes L. amazonensis SI [4]
C=C1C(=O)O[C@@H]2/C=C(\C)[C@H](O)CC/C(C)=C/[C@H](OC(C)=O)[C@@H]12 [Tatridin A acetate (5), tatridin A acetate]	> 81.6	<0.24	19.3 ± 0.91	> 81.6	<0.24	> 81.6	<0.24
C=C1CC[C@@H](C(C)C)/C=C/[C@@](C)(O)CC[C@H]1O [Nephthediol (10), (−) nephthediol]	> 105	<0.22	23.58 ± 0.21	> 105	<0.22	> 105	<0.22
O=C(Cn1ccnc1[N+](=O)[O-])NCc1ccccc1 [Benznidazole, reference compound]	–	–	> 1540	–	–	–	–
C=C1C[C@@H]2OC(=O)C(=C)[C@H]2[C@H](O)/C=C(\C)CCC1=O [Tamirin (7), Tamirin]	> 69	<0.34	23.3 ± 1.27	4.13 ± 1.25	5.65	11.7 ± 2.52	1.99
C=C1C(=O)O[C@@H]2/C=C(\C)[C@H](O)CC/C(C)=C/[C@H](O)[C@@H]12 [Tatridin A (4), tatridin A]	> 94.6	<0.34	32.4 ± 6.55	> 94.6	<0.34	> 94.6	<0.34
C=C1C(=O)O[C@H]2CC(=C)[C@@H](O)CC/C(C)=C/[C@@H](O)[C@H]12 [Tanachin (6), tanachin]	> 94.6	<1.05	99.2 ± 4.43	> 94.6	<1.05	> 94.6	<1.05
C=C1C(=O)O[C@H]2CC(=C)[C@H]3CC[C@@](C)(O)[C@@H](O3)[C@@H](O)[C@H]12 [Isobadgerin (8), isobadgerin]	> 89.2	<1.01	89.7 ± 3.92	> 89.2	<1.01	> 89.2	<1.01

Continued, in another order:

IC50 [1] [µM]	Structure (SMILES)	Epimastigotes T. cruzi SI [1]	CC50 at 24 h [2] [µM]	IC50 [3] [µM]	Promastigotes L. donovani SI [3]	IC50 [4] [µM]	Promastigotes L. amazonensis SI [4]
9.74 ± 2.68	C=C1C(=O)O[C@@H]2[C@H]3C(C)=CC[C@@H](O)[C@]3(C)CC[C@@H]12 [Santamarine (12), santamarine]	7.91	–	12.1 ± 4.67	6.35	> 101	<0.77
58.2 ± 13.1	C=C1CC[C@@H](O)[C@]2(C)CC[C@H]3C(=C)C(=O)O[C@@H]3[C@@H]12 [Reynosin (13), reynosin]	1.34	–	> 201	<0.39	40.2 ± 8.78	1.94
59.8 ± 9.76	C=C1C(=O)O[C@H]2CC(=C)[C@H]3CCC(=C)[C@@H](O3)[C@@H](O)[C@H]12 [Dehydroxyisobadgerin (9), dehydroxyisobadgerin]	0.84	50 ± 13.1	34 ± 3.32	1.47	25.5 ± 3.2	1.96
